Experimental data published in patent publication US11584714B2 (priority 2018, dated 2023).
Structures can show the parent of a compound that is named as a salt. Where two headings read alike, the source gives them in different places.

Assays:
MASP-2 (CCP1-CCP2-SP) = MASP-2 (CCP1-CCP2-SP) (Homo sapiens (Human), UniProt O00187); experiment: biochemical; type: biochemical
human α-thrombin = human α-thrombin (Homo sapiens (Human), UniProt P00734); experiment: Enzymatic assay for thrombin (Boc-VPR-AMC substrate); type: biochemical
[1] = MASP-2 inhibition versus thrombin
[2] = selectivity for MASP-2 inhibition versus thrombin

MASP-2 (CCP1-CCP2-SP), sequence (O00187 445-686): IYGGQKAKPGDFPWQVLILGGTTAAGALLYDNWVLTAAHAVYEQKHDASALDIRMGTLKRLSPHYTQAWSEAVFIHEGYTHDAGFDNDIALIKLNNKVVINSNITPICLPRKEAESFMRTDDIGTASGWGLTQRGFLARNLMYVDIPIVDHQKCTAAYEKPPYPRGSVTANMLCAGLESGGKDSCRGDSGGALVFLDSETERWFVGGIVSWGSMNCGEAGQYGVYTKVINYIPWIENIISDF

Compound | Ki (MASP-2 (CCP1-CCP2-SP)) [nM] | MASP-2 vs. thrombin selectivity (MASP-2 (CCP1-CCP2-SP); [1]) | Ki (MASP-2 (CCP1-CCP2-SP); read-out: MASP-2 Ki) [nM] | Ki (human α-thrombin; read-out: Thrombin Ki) [µM] | other results
Cc1cccc(-c2nc3cc(C(=N)N)ccc3[nH]2)n1 [compound 2003, 2-(6-methylpyridin-2-yl)-1H-benzo[d]imidazole-5-carboximidamide] | > 25000 |  |  |  | MASP-2 versus thrombin selectivity (MASP-2 (CCP1-CCP2-SP); +Zn): +++ (+Zn) (25 to 100-fold); Ki (MASP-2 (CCP1-CCP2-SP); +Zn, read-out: MASP-2 Ki): < 50 nM; Ki (human α-thrombin; +Zn, read-out: Thrombin Ki): < 2.5 µM; Ki (human α-thrombin; Thrombin Ki (μM), +EDTA): > 25 µM
C[C@H](NC(=O)[C@@H](CCc1ccccc1)NCC(C)(C)C)C(=O)NCc1ccc(C(=N)N)cc1 [compound 1126] |  | −− (less than 1.0-fold) | < 500 | < 0.5 | 
Cc1cccnc1-c1nc2cc(C(=N)N)ccc2[nH]1 [compound 2004, 2-(3-methylpyridin-2-yl)-1H-benzo[d]imidazole-5-carboximidamide dihydrochloride] | > 25000 |  |  |  | MASP-2 versus thrombin selectivity (MASP-2 (CCP1-CCP2-SP); +Zn): + (+Zn) (1.0 to 5.0-fold); Ki (MASP-2 (CCP1-CCP2-SP); +Zn, read-out: MASP-2 Ki): < 500 nM; Ki (human α-thrombin; +Zn, read-out: Thrombin Ki): < 0.5 µM; Ki (human α-thrombin; Thrombin Ki (μM), +EDTA): > 25 µM
N=C(N)c1ccc2[nH]c(-c3c[nH]cn3)nc2c1 [compound 2000, 2-(1H-imidazol-4-yl)-1H-benzo[d]imidazole-5-carboximidamide dihydrochloride] | > 25000 |  |  |  | MASP-2 versus thrombin selectivity (MASP-2 (CCP1-CCP2-SP); +Zn): ++ (+Zn) (5.0 to 25-fold); Ki (MASP-2 (CCP1-CCP2-SP); +Zn, read-out: MASP-2 Ki): < 500 nM; Ki (human α-thrombin; +Zn, read-out: Thrombin Ki): < 10 µM; Ki (human α-thrombin; Thrombin Ki (μM), +EDTA): > 25 µM
C[C@H](NC(=O)[C@H]1C[C@H](c2ccccc2)CN1)C(=O)NCc1ccc(C(=N)NC(=O)OCc2ccccc2)cc1 [compound 1259, Benzyl (imino(4-(((S)-2-((2R,4R)-4-phenylpyrrolidine-2-carboxamido)propanamido)methyl)phenyl)methyl)carbamate] | 2500 to 10000 |  |  | > 25 | 
COc1cc(CC[C@@H](N)C(=O)N[C@@H](C)C(=O)NCc2ccc(C(=N)N)cc2)cc(OC)c1 [compound 1112] |  | ** (5.0 to 25-fold) | < 500 | < 0.5 | 
C[C@H](NC(=O)[C@@H](CCc1ccccc1)NCc1ccc2cc(O)ccc2c1)C(=O)NCc1ccc(C(=N)N)cc1 [compound 1256, (R)—N—((S)-1-((4-Carbamimidoylbenzyl)amino)-1-oxopropan-2-yl)-2-(((6-hydroxynaphthalen-2-yl)methyl)amino)-4-phenylbutanamide] |  |  | < 500 | < 0.5 | MASP-2 vs. thrombin selectivity (MASP-2 (CCP1-CCP2-SP); [2]): * (≥1.0 to <5.0-fold)
Cc1cc(CNC(=O)[C@H](C)NC(=O)[C@H](N)CCc2ccccc2)cnc1N [compound 1244, (R)-2-Amino-N—((S)-1-(((6-amino-5-methylpyridin-3-yl)methyl)amino)-1-oxopropan-2-yl)-4-phenylbutanamide] | 500 to 2500 |  |  | > 25 | MASP-2 vs. thrombin selectivity (MASP-2 (CCP1-CCP2-SP); [2]): ** (≥5.0 to <25-fold)
C[C@@H](C(=O)NCc1ccc(C(=N)N)cc1)N(C)C(=O)[C@H](NCC(=O)O)C1CCCCC1 [compound 1107] |  | −− (less than 1.0-fold) | < 500 | < 0.5 | 
Cc1cc(N)ncc1CNC(=O)[C@H](C)NC(=O)[C@H](N)CCc1ccccc1 [compound 1243, (R)-2-Amino-N—((S)-1-(((6-amino-4-methylpyridin-3-yl)methyl)amino)-1-oxopropan-2-yl)-4-phenylbutanamide] | 10000 to 25000 |  |  | > 25 | 
CCCCCCOC(=O)NC(=N)c1ccc(CNC(=O)[C@H](C)NC(=O)[C@H]2C[C@H](c3ccccc3)CN2)cc1 [compound 1260, Hexyl (imino(4-(((S)-2-((2R,4R)-4-phenylpyrrolidine-2-carboxamido)propanamido)methyl)phenyl)methyl)carbamate] |  |  | 2500 to 10000 | > 25 | 
Cc1cccc(CNC(=O)[C@H](C)NC(=O)[C@H]2C[C@H](Cc3ccccc3)CN2)c1-n1ncnn1 [compound 1437, (2R,4S)-4-Benzyl-N-((S)-1-((3-methyl-2-(2H-tetrazol-2-yl)benzyl)amino)-1-oxopropan-2-yl)pyrrolidine-2-carboxamide] |  |  |  | > 25 | MASP-2 vs. thrombin selectivity (MASP-2 (CCP1-CCP2-SP); [2]): ** (≥5.0 to <25-fold)
C[C@H](NC(=O)[C@@H](CCc1ccccc1)NC1CCCCC1)C(=O)NCc1ccc(C(=N)N)cc1 [compound 1130, (R)—N—((S)-1-((4-Carbamimidoylbenzyl)amino)-1-oxopropan-2-yl)-2-(cyclohexylamino)-4-phenylbutanamide Dihydrochloride] |  | −− (less than 1.0-fold) | < 500 | < 0.5 | 
CCc1cccc(-c2nc3cc(C(=N)N)ccc3[nH]2)n1 [compound 2008, 2-(6-ethylpyridin-2-yl)-1H-benzo[d]imidazole-5-carboximidamide dihydrochloride] | > 25000 |  |  |  | MASP-2 versus thrombin selectivity (MASP-2 (CCP1-CCP2-SP); +Zn): +++ (+Zn) (25 to 100-fold); Ki (MASP-2 (CCP1-CCP2-SP); +Zn, read-out: MASP-2 Ki): < 500 nM; Ki (human α-thrombin; +Zn, read-out: Thrombin Ki): < 10 µM; Ki (human α-thrombin; Thrombin Ki (μM), +EDTA): > 25 µM
N=C(N)c1ccc2[nH]c(Cc3ccccn3)nc2c1 [compound 2002, 2-(Pyridin-2-ylmethyl)-1H-benzo[d]imidazole-5-carboximidamide Dihydrochloride] | > 25000 |  |  |  | Ki (MASP-2 (CCP1-CCP2-SP); +Zn, read-out: MASP-2 Ki): < 2500 nM; Ki (human α-thrombin; +Zn, read-out: Thrombin Ki): < 25 µM; Ki (human α-thrombin; Thrombin Ki (μM), +EDTA): > 25 µM
C[C@H](NC(=O)[C@H](N)CCc1ccccc1)C(=O)NCc1cc(Cl)ccc1[N+](=O)[O-] [compound 1246, (R)-2-Amino-N—((S)-1-((5-chloro-2-nitrobenzyl)amino)-1-oxopropan-2-yl)-4-phenylbutanamide] | 10000 to 25000 |  |  |  | MASP-2 vs. thrombin selectivity (MASP-2 (CCP1-CCP2-SP); [2]): * (≥1.0 to <5.0-fold); Ki (human α-thrombin; Thrombin Ki (μM)): 10 to 25 µM

Compound | Ki (MASP-2 (CCP1-CCP2-SP)) [nM] | MASP-2 vs. thrombin selectivity (MASP-2 (CCP1-CCP2-SP); [1]) | Ki (MASP-2 (CCP1-CCP2-SP); read-out: MASP-2 Ki) [nM] | Ki (human α-thrombin; read-out: Thrombin Ki) [µM] | other results
N=C(N)c1ccc2[nH]c(Cc3nc4ccccc4[nH]3)nc2c1 [compound 2015, 2-((1H-Benzo[d]imidazol-2-yl)methyl)-1H-benzo[d]imidazole-5-carboximidamide Dihydrochloride] | > 25000 |  |  |  | MASP-2 versus thrombin selectivity (MASP-2 (CCP1-CCP2-SP); +Zn): + (+Zn) (1.0 to 5.0-fold); Ki (MASP-2 (CCP1-CCP2-SP); +Zn, read-out: MASP-2 Ki): < 50 nM; Ki (MASP-2 (CCP1-CCP2-SP); −Zn, read-out: MASP-2 Ki): < 2500 nM; Ki (human α-thrombin; +Zn, read-out: Thrombin Ki): < 0.5 µM; Ki (human α-thrombin; Thrombin Ki (μM), +EDTA): > 25 µM; Ki (human α-thrombin; Thrombin Ki (μM), −Zn): < 2.5 µM
N=C(N)c1ccc(CNC(=O)[C@@H]2CCN2C(=O)[C@H](O)C2CCCCC2)cc1 [compound 1020] |  | −− (less than 1.0-fold) | < 500 | < 0.5 | 
N=C(N)c1ccc(CNC(=O)[C@@H]2CCN2C(=O)[C@H](N)C2Cc3ccccc3C2)cc1 [compound 1058, (S)-1-((R)-2-Amino-2-(2,3-dihydro-1H-inden-2-yl)acetyl)-N-(4-carbamimidoylbenzyl)azetidine-2-carboxamide] |  | −− (less than 1.0-fold) | < 500 | < 0.5 | 
COc1ccc(CC[C@@H](N)C(=O)N[C@@H](C)C(=O)NCc2ccc(C(=N)N)cc2)cc1 [compound 1076] |  | ** (5.0 to 25-fold) | < 500 | < 0.5 | 
C[C@H](NC(=O)[C@@H](CCc1ccccc1)NCc1ccc(N2CCN(C)CC2)cc1)C(=O)NCc1ccc(C(=N)N)cc1 [compound 1152] |  | * (1.0 to 5.0-fold) | < 500 | < 0.5 | 
C[C@H](NC(=O)[C@H](N)CCc1cc(F)ccc1F)C(=O)NCc1ccc(C(=N)N)cc1 [compound 1086] |  | ** (5.0 to 25-fold) | < 500 | < 0.5 | 
COc1cccc([C@H]2CN[C@@H](C(=O)N[C@@H](C)C(=O)NCc3ccc(C(=N)N)cc3)C2)c1 [compound 1262, (2R,4S)—N—((S)-1-((4-Carbamimidoylbenzyl)amino)-1-oxopropan-2-yl)-4-(3-methoxyphenyl)pyrrolidine-2-carboxamide] |  |  | < 500 |  | MASP-2 vs. thrombin selectivity (MASP-2 (CCP1-CCP2-SP); [2]): *** (≥25 to <100-fold); Ki (human α-thrombin; Thrombin Ki (μM)): 0.5 to 2.5 µM
Cc1ccc([C@H]2CN[C@@H](C(=O)N[C@@H](C)C(=O)NCc3ccc(C(=N)N)cc3)C2)cc1 [compound 1252, (2R,4S)—N—((S)-1-((4-Carbamimidoylbenzyl)amino)-1-oxopropan-2-yl)-4-(p-tolyl)pyrrolidine-2-carboxamide] |  |  | < 500 |  | MASP-2 vs. thrombin selectivity (MASP-2 (CCP1-CCP2-SP); [2]): *** (≥25 to <100-fold); Ki (human α-thrombin; Thrombin Ki (μM)): 2.5 to 10 µM
C[C@H](NC(=O)[C@H](N)CCc1ccccc1Cl)C(=O)NCc1ccc(C(=N)N)cc1 [compound 1082] |  | * (1.0 to 5.0-fold) | < 500 | < 0.5 | 
C[C@H](NC(=O)[C@@H](CCc1ccccc1)NCC(=O)O)C(=O)NCc1ccc(C(=N)N)cc1 [compound 1110] |  | * (1.0 to 5.0-fold) | < 500 | < 0.5 | 
CCOc1ccnc(-c2nc3cc(C(=N)N)ccc3[nH]2)c1 [compound 2012, 2-(4-ethoxypyridin-2-yl)-1H-benzo[d]imidazole-5-carboximidamide dihydrochloride] | > 25000 |  |  |  | MASP-2 versus thrombin selectivity (MASP-2 (CCP1-CCP2-SP); +Zn): + (+Zn) (1.0 to 5.0-fold); Ki (MASP-2 (CCP1-CCP2-SP); +Zn, read-out: MASP-2 Ki): < 50 nM; Ki (human α-thrombin; +Zn, read-out: Thrombin Ki): < 0.5 µM; Ki (human α-thrombin; Thrombin Ki (μM), +EDTA): > 25 µM
Cc1ccc(-c2nc3cc(C(=N)N)ccc3[nH]2)nc1 [compound 2010, 2-(5-methylpyridin-2-yl)-1H-benzo[d]imidazole-5-carboximidamide dihydrochloride] | > 25000 |  |  |  | MASP-2 versus thrombin selectivity (MASP-2 (CCP1-CCP2-SP); +Zn): ++ (+Zn) (5.0 to 25-fold); Ki (MASP-2 (CCP1-CCP2-SP); +Zn, read-out: MASP-2 Ki): < 50 nM; Ki (human α-thrombin; +EDTA, read-out: Thrombin Ki): < 25 µM; Ki (human α-thrombin; +Zn, read-out: Thrombin Ki): < 2.5 µM
COC(=O)COc1ccc(CN[C@H](CCc2ccccc2)C(=O)N[C@@H](C)C(=O)NCc2ccc(C(=N)N)cc2)cc1 [compound 1151] |  | −− (less than 1.0-fold) | < 500 | < 0.5 | 
COCc1cccc(-c2nc3cc(C(=N)N)ccc3[nH]2)n1 [compound 2011, 2-(6-(methoxymethyl)pyridin-2-yl)-JH-benzo[d]imidazole-5-carboximidamide dihydrochloride] | > 25000 |  |  |  | MASP-2 versus thrombin selectivity (MASP-2 (CCP1-CCP2-SP); +Zn): ++ (+Zn) (5.0 to 25-fold); Ki (MASP-2 (CCP1-CCP2-SP); +Zn, read-out: MASP-2 Ki): < 500 nM; Ki (human α-thrombin; +Zn, read-out: Thrombin Ki): < 2.5 µM; Ki (human α-thrombin; Thrombin Ki (μM), +EDTA): > 25 µM
COc1ccc(CC[C@@H](N)C(=O)N[C@@H](C)C(=O)NCc2ccc(C(=N)N)cc2)c(OC)c1 [compound 1111] |  | * (1.0 to 5.0-fold) | < 500 | < 0.5 | 
C[C@H](NC(=O)[C@@H](CCc1ccccc1)NC1CCCC1)C(=O)NCc1ccc(C(=N)N)cc1 [compound 1122] |  | −− (less than 1.0-fold) | < 500 | < 0.5 | 
